According to patent US9884823B2, “Oxime ether acetate compound, preparation method therefor and weeding application thereof” (ZHEJIANG UNIVERSITY OF TECHNOLOGY, priority 2014, dated 2018):

System: Barnyardgrass
Test: Culture dish method (general screening)
Format: in vivo, barnyard grass
Details: 100 mg/L; 7 days; root
Description: (§3) Culture dish method (general screening): The test targets were radish, cucumber, rape, wheat, sorghum and barnyard grass; the seeds of wheat, sorghum and radish were germinated in advance, and the uniform emerge-germinating seeds were used in the test.

Row | Compound | inhibition rate, Barnyardgrass Root [%]
1 | CON=C(C(=O)OC)c1ccccc1COc1cccc(-c2ccc(Cl)cn2)c1 [Compound 19] | 70
2 | CON=C(C(=O)OC)c1ccccc1COc1ccc(-c2ccc(Cl)cn2)cc1 [Compound 27] | 60
3 | CON=C(C(=O)OC)c1ccccc1COc1ccc(-c2ccc(C(F)(F)F)cn2)cc1 [Compound 32] | 0

Same assay, conditions: 100 mg/L; 7 days; stem

Row | Compound | inhibition rate, Barnyardgrass Stem [%]
4 | CON=C(C(=O)OC)c1ccccc1COc1cccc(-c2ccc(Cl)cn2)c1 [Compound 19] | 30
5 | CON=C(C(=O)OC)c1ccccc1COc1ccc(-c2ccc(Cl)cn2)cc1 [Compound 27] | 30
6 | CON=C(C(=O)OC)c1ccccc1COc1ccc(-c2ccc(C(F)(F)F)cn2)cc1 [Compound 32] | 0

System: Cucumber
Test: Culture dish method (general screening)
Format: in vivo
Details: 100 mg/L; 7 days; root
Description: as §3

Row | Compound | inhibition rate, Cucumber Root [%]
7 | CON=C(C(=O)OC)c1ccccc1COc1cccc(-c2ccc(Cl)cn2)c1 [Compound 19] | 90
8 | CON=C(C(=O)OC)c1ccccc1COc1ccc(-c2ccc(Cl)cn2)cc1 [Compound 27] | 60
9 | CON=C(C(=O)OC)c1ccccc1COc1ccc(-c2ccc(C(F)(F)F)cn2)cc1 [Compound 32] | 0

Same assay, conditions: 100 mg/L; 7 days; stem

Row | Compound | inhibition rate, Cucumber Stem [%]
10 | CON=C(C(=O)OC)c1ccccc1COc1cccc(-c2ccc(Cl)cn2)c1 [Compound 19] | 70
11 | CON=C(C(=O)OC)c1ccccc1COc1ccc(-c2ccc(Cl)cn2)cc1 [Compound 27] | 0
12 | CON=C(C(=O)OC)c1ccccc1COc1ccc(-c2ccc(C(F)(F)F)cn2)cc1 [Compound 32] | 0

System: Dog point
Test: Potted plants live body test
Format: in vivo
Details: Postemergence spraying; 150 g a.i./ha; 30 days; Table 9
Description: (§1) The raw drug which was selected from the compounds in table 1 was weighed using an analytical balance (0.0001 g), and dissolved in DMF containing 1 wt % Tween-80 emulsifier to prepare a mother liquor of raw drug with a mass concentration of 1.0˜5.0%, and then diluted with distilled water, to prepare preparations at desired concentrations according to the ratio of ingredients in Examples 8, 9 and 10.
(§2) The test targets were mustard, small quinoa, Abutilon, amaranthus retroflexus, Eclipta prostrata, crabgrass, dog point. A pot with a diameter of 7.5 cm was used, filled with composite soil (garden soil:nursery matrix, 1:2, v/v) to ¾ of the pot, then the above […] kinds of weeds targets were directly seeded (germination rate ≧85%), covered with soil at a thickness of 0.2 cm. When the weeds grew to 3-leaf stage, pre-emergence soil treatment for weeds planting, and then spraying was performed.

Row | Compound | efficiency, Dog point [%]
13 | CON=C(C(=O)OC)c1ccccc1COc1cccc(-c2ccc(Cl)cn2)c1 [Compound 19] | 0
14 | CON=C(C(=O)OC)c1ccccc1COc1ccc(-c2ccc(Cl)cn2)cc1 [Compound 27] | 0

Same assay, conditions: Pre-emergence soil treatment; 150 g a.i./ha; 30 days; Table 9

Row | Compound | efficiency, Dog point [%]
15 | CON=C(C(=O)OC)c1ccccc1COc1cccc(-c2ccc(Cl)cn2)c1 [Compound 19] | 0
16 | CON=C(C(=O)OC)c1ccccc1COc1ccc(-c2ccc(Cl)cn2)cc1 [Compound 27] | 0

System: Eclipta prostrata
Test: Potted plants live body test
Format: in vivo
Details: Postemergence spraying; 150 g a.i./ha; 30 days; Table 9
Description: as §1, §2

Row | Compound | efficiency, Eclipta prostrata [%]
17 | CON=C(C(=O)OC)c1ccccc1COc1cccc(-c2ccc(Cl)cn2)c1 [Compound 19] | 50
18 | CON=C(C(=O)OC)c1ccccc1COc1ccc(-c2ccc(Cl)cn2)cc1 [Compound 27] | 80

Same assay, conditions: Pre-emergence soil treatment; 150 g a.i./ha; 30 days; Table 9

Row | Compound | efficiency, Eclipta prostrata [%]
19 | CON=C(C(=O)OC)c1ccccc1COc1cccc(-c2ccc(Cl)cn2)c1 [Compound 19] | 0
20 | CON=C(C(=O)OC)c1ccccc1COc1ccc(-c2ccc(Cl)cn2)cc1 [Compound 27] | 0

System: Crabgrass
Test: Potted plants live body test
Format: in vivo
Details: Postemergence spraying; 150 g a.i./ha; 30 days; Table 9
Description: as §1, §2

Row | Compound | efficiency, Crabgrass [%]
21 | CON=C(C(=O)OC)c1ccccc1COc1cccc(-c2ccc(Cl)cn2)c1 [Compound 19] | 0
22 | CON=C(C(=O)OC)c1ccccc1COc1ccc(-c2ccc(Cl)cn2)cc1 [Compound 27] | 0

Same assay, conditions: Pre-emergence soil treatment; 150 g a.i./ha; 30 days; Table 9

Row | Compound | efficiency, Crabgrass [%]
23 | CON=C(C(=O)OC)c1ccccc1COc1cccc(-c2ccc(Cl)cn2)c1 [Compound 19] | 0
24 | CON=C(C(=O)OC)c1ccccc1COc1ccc(-c2ccc(Cl)cn2)cc1 [Compound 27] | 0

System: amaranthus retroflexus
Test: Potted plants live body test
Format: in vivo
Details: Postemergence spraying; 150 g a.i./ha; 30 days; Table 9
Description: as §1, §2

Row | Compound | efficiency, amaranthus retroflexus [%]
25 | CON=C(C(=O)OC)c1ccccc1COc1cccc(-c2ccc(Cl)cn2)c1 [Compound 19] | 50
26 | CON=C(C(=O)OC)c1ccccc1COc1ccc(-c2ccc(Cl)cn2)cc1 [Compound 27] | 80

Same assay, conditions: Pre-emergence soil treatment; 150 g a.i./ha; 30 days; Table 9

Row | Compound | efficiency, amaranthus retroflexus [%]
27 | CON=C(C(=O)OC)c1ccccc1COc1cccc(-c2ccc(Cl)cn2)c1 [Compound 19] | 30
28 | CON=C(C(=O)OC)c1ccccc1COc1ccc(-c2ccc(Cl)cn2)cc1 [Compound 27] | 50

System: Abutilon
Test: Potted plants live body test
Format: in vivo
Details: Postemergence spraying; 150 g a.i./ha; 30 days; Table 9
Description: as §1, §2

Row | Compound | efficiency, Abutilon [%]
29 | CON=C(C(=O)OC)c1ccccc1COc1cccc(-c2ccc(Cl)cn2)c1 [Compound 19] | 40
30 | CON=C(C(=O)OC)c1ccccc1COc1ccc(-c2ccc(Cl)cn2)cc1 [Compound 27] | 60

Same assay, conditions: Pre-emergence soil treatment; 150 g a.i./ha; 30 days; Table 9

Row | Compound | efficiency, Abutilon [%]
31 | CON=C(C(=O)OC)c1ccccc1COc1cccc(-c2ccc(Cl)cn2)c1 [Compound 19] | 0
32 | CON=C(C(=O)OC)c1ccccc1COc1ccc(-c2ccc(Cl)cn2)cc1 [Compound 27] | 0

System: Wheat
Test: Culture dish method (general screening)
Format: in vivo
Details: 100 mg/L; 7 days; root
Description: as §3

Row | Compound | inhibition rate, Wheat Root [%]
33 | CON=C(C(=O)OC)c1ccccc1COc1cccc(-c2ccc(Cl)cn2)c1 [Compound 19] | 30
34 | CON=C(C(=O)OC)c1ccccc1COc1ccc(-c2ccc(Cl)cn2)cc1 [Compound 27] | 50
35 | CON=C(C(=O)OC)c1ccccc1COc1ccc(-c2ccc(C(F)(F)F)cn2)cc1 [Compound 32] | 0

Same assay, conditions: 100 mg/L; 7 days; stem

Row | Compound | inhibition rate, Wheat Stem [%]
36 | CON=C(C(=O)OC)c1ccccc1COc1cccc(-c2ccc(Cl)cn2)c1 [Compound 19] | 0
37 | CON=C(C(=O)OC)c1ccccc1COc1ccc(-c2ccc(Cl)cn2)cc1 [Compound 27] | 0
38 | CON=C(C(=O)OC)c1ccccc1COc1ccc(-c2ccc(C(F)(F)F)cn2)cc1 [Compound 32] | 0

System: Rape
Test: Culture dish method (general screening)
Format: in vivo
Details: 100 mg/L; 7 days; root
Description: as §3

Row | Compound | inhibition rate, Rape Root [%]
39 | CON=C(C(=O)OC)c1ccccc1COc1cccc(-c2ccc(Cl)cn2)c1 [Compound 19] | 100
40 | CON=C(C(=O)OC)c1ccccc1COc1ccc(-c2ccc(Cl)cn2)cc1 [Compound 27] | 50
41 | CON=C(C(=O)OC)c1ccccc1COc1ccc(-c2ccc(C(F)(F)F)cn2)cc1 [Compound 32] | 80

Same assay, conditions: 100 mg/L; 7 days; stem

Row | Compound | inhibition rate, Rape Stem [%]
42 | CON=C(C(=O)OC)c1ccccc1COc1cccc(-c2ccc(Cl)cn2)c1 [Compound 19] | 100
43 | CON=C(C(=O)OC)c1ccccc1COc1ccc(-c2ccc(Cl)cn2)cc1 [Compound 27] | 50
44 | CON=C(C(=O)OC)c1ccccc1COc1ccc(-c2ccc(C(F)(F)F)cn2)cc1 [Compound 32] | 80

System: Mustard
Test: not given
Details: Postemergence spraying; 150 g a.i./ha; 30 days; Table 9

Row | Compound | efficiency, Mustard [%]
45 | CON=C(C(=O)OC)c1ccccc1COc1cccc(-c2ccc(Cl)cn2)c1 [Compound 19] | 50
46 | CON=C(C(=O)OC)c1ccccc1COc1ccc(-c2ccc(Cl)cn2)cc1 [Compound 27] | 80

Same assay, conditions: Pre-emergence soil treatment; 150 g a.i./ha; 30 days; Table 9

Row | Compound | efficiency, Mustard [%]
47 | CON=C(C(=O)OC)c1ccccc1COc1cccc(-c2ccc(Cl)cn2)c1 [Compound 19] | 0
48 | CON=C(C(=O)OC)c1ccccc1COc1ccc(-c2ccc(Cl)cn2)cc1 [Compound 27] | 30

System: Radish
Test: Culture dish method (general screening)
Format: in vivo
Details: 100 mg/L; 7 days; root
Description: as §3

Row | Compound | inhibition rate, Radish Root [%]
49 | CON=C(C(=O)OC)c1ccccc1COc1cccc(-c2ccc(Cl)cn2)c1 [Compound 19] | 80
50 | CON=C(C(=O)OC)c1ccccc1COc1ccc(-c2ccc(Cl)cn2)cc1 [Compound 27] | 50
51 | CON=C(C(=O)OC)c1ccccc1COc1ccc(-c2ccc(C(F)(F)F)cn2)cc1 [Compound 32] | 80

Same assay, conditions: 100 mg/L; 7 days; stem

Row | Compound | inhibition rate, Radish Stem [%]
52 | CON=C(C(=O)OC)c1ccccc1COc1cccc(-c2ccc(Cl)cn2)c1 [Compound 19] | 80
53 | CON=C(C(=O)OC)c1ccccc1COc1ccc(-c2ccc(Cl)cn2)cc1 [Compound 27] | 20
54 | CON=C(C(=O)OC)c1ccccc1COc1ccc(-c2ccc(C(F)(F)F)cn2)cc1 [Compound 32] | 50

System: Small quinoa
Test: not given
Details: Postemergence spraying; 150 g a.i./ha; 30 days; Table 9
Description: as §1, §2

Row | Compound | efficiency, Small quinoa [%]
55 | CON=C(C(=O)OC)c1ccccc1COc1cccc(-c2ccc(Cl)cn2)c1 [Compound 19] | 60
56 | CON=C(C(=O)OC)c1ccccc1COc1ccc(-c2ccc(Cl)cn2)cc1 [Compound 27] | 60

Same assay, conditions: Pre-emergence soil treatment; 150 g a.i./ha; 30 days; Table 9

Row | Compound | efficiency, Small quinoa [%]
57 | CON=C(C(=O)OC)c1ccccc1COc1cccc(-c2ccc(Cl)cn2)c1 [Compound 19] | 25
58 | CON=C(C(=O)OC)c1ccccc1COc1ccc(-c2ccc(Cl)cn2)cc1 [Compound 27] | 25

System: grass weeds such as crabgrass, barnyard grass, dog point
Test: not given
Details: 150 g a.i./ha; 30 days after administration; Table 9 summary
Description: as §1, §2

Row | Compound | activity for grass targets such as crabgrass and dog point
59 | CON=C(C(=O)OC)c1ccccc1COc1cccc(-c2ccc(Cl)cn2)c1 [Compound 19] | poor activity
60 | CON=C(C(=O)OC)c1ccccc1COc1ccc(-c2ccc(Cl)cn2)cc1 [Compound 27] | poor activity

Same assay, conditions: postemergence spraying; 150 g a.i./ha; 30 days

Row | Compound | activity on grass weeds such as crabgrass, dog point
61 | CON=C(C(=O)OC)c1ccccc1COc1cccc(-c2ccc(Cl)cn2)c1 [Compound 19] | almost have no activity
62 | CON=C(C(=O)OC)c1ccccc1COc1ccc(-c2ccc(Cl)cn2)cc1 [Compound 27] | almost have no activity

System: broadleaf weeds such as mustard, small quinoa, Abutilon, Amaranthus retroflexus and Eclipta prostrate
Test: not given
Details: 150 g a.i./ha; 30 days after administration; Table 9 summary
Description: as §1, §2

Row | Compound | herbicidal activity on broadleaf weeds targets
63 | CON=C(C(=O)OC)c1ccccc1COc1cccc(-c2ccc(Cl)cn2)c1 [Compound 19] | herbicidal activity
64 | CON=C(C(=O)OC)c1ccccc1COc1ccc(-c2ccc(Cl)cn2)cc1 [Compound 27] | herbicidal activity

Same assay, conditions: postemergence spraying; 150 g a.i./ha; 30 days; vs clear water control

Row | Compound | activity on the growth of broadleaf weeds
65 | CON=C(C(=O)OC)c1ccccc1COc1cccc(-c2ccc(Cl)cn2)c1 [Compound 19] | inhibitory activity
66 | CON=C(C(=O)OC)c1ccccc1COc1ccc(-c2ccc(Cl)cn2)cc1 [Compound 27] | inhibitory activity

System: Chinese sorghum
Test: Culture dish method (general screening)
Format: in vivo
Details: 100 mg/L; 7 days; root
Description: as §3

Row | Compound | inhibition rate, Chinese sorghum Root [%]
67 | CON=C(C(=O)OC)c1ccccc1COc1cccc(-c2ccc(Cl)cn2)c1 [Compound 19] | 80
68 | CON=C(C(=O)OC)c1ccccc1COc1ccc(-c2ccc(Cl)cn2)cc1 [Compound 27] | 50
69 | CON=C(C(=O)OC)c1ccccc1COc1ccc(-c2ccc(C(F)(F)F)cn2)cc1 [Compound 32] | 0

Same assay, conditions: 100 mg/L; 7 days; stem

Row | Compound | inhibition rate, Chinese sorghum Stem [%]
70 | CON=C(C(=O)OC)c1ccccc1COc1cccc(-c2ccc(Cl)cn2)c1 [Compound 19] | 30
71 | CON=C(C(=O)OC)c1ccccc1COc1ccc(-c2ccc(Cl)cn2)cc1 [Compound 27] | 0
72 | CON=C(C(=O)OC)c1ccccc1COc1ccc(-c2ccc(C(F)(F)F)cn2)cc1 [Compound 32] | 0
